Measured values reported in patent US9844536B2, “3-(1H-imidazo[4,5-C]pyridin-2-yl)-1H-pyrazolo[3,4-C]pyridine and therapeutic uses thereof” (Samumed, LLC, priority 2014, dated 2017).
Each block holds one compound with its values, some of them ahead of it.

Experiments:
[1] = test system: Wnt pathway (Sp5-Luc reporter, SW480 cells); assay: Sp5-Luc reporter gene screening assay for Wnt activity in SW480 colon carcinoma cells; assay type: cell-based; settings: Homo sapiens
Summary of the method: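 IC50 values come from variable-slope four-parameter fits of luciferase signal normalized to DMSO wells. Stable Sp5-Luc reporter SW480 colon carcinoma cells were exposed to compounds in a 3-fold dilution series (source plates from 10 mM stock) for forty-two hours at 37 °C.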

LL29 cells = assay: Inhibition of the fibrotic process (αSMA staining) in TGF-β1 treated primary human fibroblasts from IPF patients; assay type: cell-based; settings: Fibroblast, 96 h, TGF-β1 20 ng/mL, 4 days, dose-response 10 μM to 1.87 nM, read-out: Inhibition of fibrosis EC50
Text: The above synthesized compounds were screened using primary human fibroblasts (derived from IPF patients) treated with TGF-β1 to determine their ability to inhibit the fibrotic process.
Primary human fibroblasts derived from IPF patients (LL29 cells) [^1Xiaoqiu Liu, et. al., “Fibrotic Lung Fibroblasts Show Blunted Inhibition by cAMP Due to Deficient cAMP Response Element-Binding Protein Phosphorylation”, Journal of Pharmacology and Experimental Therapeutics (2005), 315(2), 678-687; ^2Watts, K. L., et. al., “RhoA signaling modulates cyclin D1 expression in human lung fibroblasts; implications for idiopathic pulmonary fibrosis”, Respiratory Research (2006), 7(1), 88] were obtained from American Type Culture Collection (ATCC) and expanded in F12 medium supplemented with 15% Fetal Bovine Serum and Penicillin/Streptomycin.
Each compound was dissolved in DMSO as a 10 mM stock and used to prepare compound source plates. Serial dilution (1:2, 11-point dose-response curves from 10 μM to 1.87 nM) and compound transfer was performed using the ECHO 550 (Labcyte, Sunnyvale, Calif.) into 384-well clear bottom assay plates (Greiner Bio-One) with appropriate DMSO backfill for a final DMSO concentration of 0.1%. LL29 cells were plated at 1,500 cells/well in 80 μl/well F12 medium supplemented with 1% Fetal Bovine Serum. One hour after addition of the cells, TGF-β1 (Peprotech; 20 ng/mL) was added to the plates to induce fibrosis (ref. 1 and 2 above). Wells treated with TGF-β1 and containing DMSO were used as controls. Cells were incubated at 37° C. and 5% CO2 for 4 days. Following incubation for 4 days, SYTOX green nucleic acid stain (Life Technologies [Thermo Fisher Scientific]) was added to the wells at a final concentration of 1 uM and incubated at room temperature for 30 min. Cells were then fixed using 4% formaldehyde (Electron Microscopy Sciences), washed 3 times with PBS followed by blocking and permeabilization using 3% Bovine Serum Albumin (BSA; Sigma) and 0.3% Triton X-100 (Sigma) in PBS. Cells were then stained with antibody specific to α-smooth muscle actin (αSMA; Abcam) (ref. 1 and 2 above) in 3% Bovine Serum Albumin (BSA; Sigma) and 0.3% Triton X-100 (Sigma) in PBS, and incubated overnight at 4° C. Cells were then washed 3 times with PBS, followed by incubation with Alexa Flor-647 conjugated secondary antibody (Life Technologies [Thermo Fisher Scientific]) and DAPI at room temperature for 1 hour. Cells were then washed 3 times with PBS and plates were sealed for imaging. αSMA staining was imaged by excitation at 630 nm and emission at 665 nm and quantified using the Compartmental Analysis program on the CellInsight CX5 (Thermo Scientific). Dead or apoptotic cells were excluded from analysis based on positive SYTOX green staining. % of total cells positive for αSMA were counted in each well and normalized to the average of 11 wells treated with TGF-31 on the same plate using Dotmatics' Studies Software. The normalized averages (fold change over untreated) of 3 replicate wells for each compound concentration were used to create dose-responses curves and EC50 values were calculated using non-linear regression curve fit in the Dotmatics' Studies Software. The EC50 values are reported.

SMILES: CC(C)CC(=O)Nc1cncc(-c2cc3c(-c4nc5c(-c6ccc(F)s6)nccc5[nH]4)n[nH]c3cn2)c1 [Compound 340, N-(5-(3-(4-(5-Fluorothiophen-2-yl)-1H-imidazo[4,5-c]pyridin-2-yl)-1H-pyrazolo[3,4-c]pyridin-5-yl)pyridin-3-yl)-3-methylbutanamide]
- IC50 [1]: 31.7 nM
- EC50 (LL29 cells): 306 nM

SMILES: CCNCc1cncc(-c2cc3c(-c4nc5c(-c6cc(F)cc(NCCN(C)C)c6)nccc5[nH]4)n[nH]c3cn2)c1 [Compound 448, N^1-(3-(2-(5-(5-((Ethylamino)methyl)pyridin-3-yl)-1H-pyrazolo[3,4-c]pyridin-3-yl)-1H-imidazo[4,5-c]pyridin-4-yl)-5-fluorophenyl)-N2,N2-dimethylethane-1,2-diamine]
- IC50 [1]: 394 nM
- EC50 (LL29 cells): ≥ 9990 nM

SMILES: O=C(Nc1cncc(-c2cc3c(-c4nc5cnccc5[nH]4)n[nH]c3cn2)c1)C1CCCCC1 [Compound 256, N-(5-(3-(1H-Imidazo[4,5-c]pyridin-2-yl)-1H-pyrazolo[3,4-c]pyridin-5-yl)pyridin-3-yl)cyclohexanecarboxamide]
- IC50 [1]: 532 nM
- EC50 (LL29 cells): ≥ 9990 nM

SMILES: Cc1ncc(-c2cc3c(-c4nc5c(-c6cccc(F)c6)nccc5[nH]4)n[nH]c3cn2)n1C [Compound 941, 5-(1,2-Dimethyl-1H-imidazol-5-yl)-3-(4-(3-fluorophenyl)-1H-imidazo[4,5-c]pyridin-2-yl)-1H-pyrazolo[3,4-c]pyridine]
- IC50 [1]: 1010 nM
- EC50 (LL29 cells): 76 nM

SMILES: CN(C)c1cncc(-c2cc3c(-c4nc5c(N6CCCCC6)nccc5[nH]4)n[nH]c3cn2)c1 [Compound 163, N,N-Dimethyl-5-(3-(4-(piperidin-1-yl)-1H-imidazo[4,5-c]pyridin-2-yl)-1H-pyrazolo[3,4-c]pyridin-5-yl)pyridin-3-amine]
- IC50 [1]: 312 nM
- EC50 (LL29 cells): ≤ 9 nM

SMILES: CN1CCN(c2nccc3[nH]c(-c4n[nH]c5cnc(-c6cncc(CN7CCCCC7)c6)cc45)nc23)CC1 [Compound 223, 3-(4-(4-Methylpiperazin-1-yl)-1H-imidazo[4,5-c]pyridin-2-yl)-5-(5-(piperidin-1-ylmethyl)pyridin-3-yl)-1H-pyrazolo[3,4-c]pyridine]
- IC50 [1]: > 10000 nM
- EC50 (LL29 cells): ≥ 9990 nM

SMILES: CCCCC(=O)Nc1cncc(-c2cc3c(-c4nc5c(-c6cc(F)cc(NCCN(C)C)c6)nccc5[nH]4)n[nH]c3cn2)c1 [Compound 460, N-(5-(3-(4-(3-((2-(Dimethylamino)ethyl)amino)-5-fluorophenyl)-1H-imidazo[4,5-c]pyridin-2-yl)-1H-pyrazolo[3,4-c]pyridin-5-yl)pyridin-3-yl)pentanamide]
- IC50 [1]: 203 nM
- EC50 (LL29 cells): ≥ 9990 nM

SMILES: Cc1ccncc1-c1cc2c(-c3nc4c(-c5ccsc5)nccc4[nH]3)n[nH]c2cn1 [Compound 265, 5-(4-Methylpyridin-3-yl)-3-(4-(thiophen-3-yl)-1H-imidazo[4,5-c]pyridin-2-yl)-1H-pyrazolo[3,4-c]pyridine]
- IC50 [1]: 59.9 nM
- EC50 (LL29 cells): 157 nM

SMILES: CCCCC(=O)Nc1cncc(-c2cc3c(-c4nc5c(-c6ccoc6)nccc5[nH]4)n[nH]c3cn2)c1 [Compound 304, N-(5-(3-(4-(Furan-3-yl)-1H-imidazo[4,5-c]pyridin-2-yl)-1H-pyrazolo[3,4-c]pyridin-5-yl)pyridin-3-yl)pentanamide]
- IC50 [1]: 64 nM
- EC50 (LL29 cells): ≥ 9990 nM

SMILES: CN(C)CC(=O)Nc1cncc(-c2cc3c(-c4nc5c(-c6cccc(F)c6)nccc5[nH]4)n[nH]c3cn2)c1 [Compound 1437, 2-(Dimethylamino)-N-(5-(3-(4-(3-fluorophenyl)-1H-imidazo[4,5-c]pyridin-2-yl)-1H-pyrazolo[3,4-c]pyridin-5-yl)pyridin-3-yl)acetamide]
- IC50 [1]: 38 nM
- EC50 (LL29 cells): 342 nM

SMILES: CC(C)CC(=O)Nc1cncc(-c2cc3c(-c4nc5c(-c6cc(O)cc(F)c6)nccc5[nH]4)n[nH]c3cn2)c1 [Compound 1350, N-(5-(3-(4-(3-Fluoro-5-hydroxyphenyl)-1H-imidazo[4,5-c]pyridin-2-yl)-1H-pyrazolo[3,4-c]pyridin-5-yl)pyridin-3-yl)-3-methylbutanamide]
- IC50 [1]: 135 nM
- EC50 (LL29 cells): 135 nM

SMILES: CS(=O)(=O)NCc1cc(F)cc(-c2nccc3[nH]c(-c4n[nH]c5cnc(-c6cncnc6)cc45)nc23)c1 [Compound 442, N-(3-Fluoro-5-(2-(5-(pyrimidin-5-yl)-1H-pyrazolo[3,4-c]pyridin-3-yl)-1H-imidazo[4,5-c]pyridin-4-yl)benzyl)methanesulfonamide]
- IC50 [1]: 30.8 nM
- EC50 (LL29 cells): ≤ 9 nM

SMILES: CC(C)Nc1cncc(-c2cc3c(-c4nc5c(-c6cccnc6)nccc5[nH]4)n[nH]c3cn2)c1 [Compound 90, N-Isopropyl-5-(3-(4-(pyridin-3-yl)-1H-imidazo[4,5-c]pyridin-2-yl)-1H-pyrazolo[3,4-c]pyridin-5-yl)pyridin-3-amine]
- IC50 [1]: 11.2 nM
- EC50 (LL29 cells): ≤ 9 nM

SMILES: CCCC(=O)Nc1cncc(-c2cc3c(-c4nc5c(-c6ccncc6)nccc5[nH]4)n[nH]c3cn2)c1 [Compound 121, N-(5-(3-(4-(Pyridin-4-yl)-1H-imidazo[4,5-c]pyridin-2-yl)-1H-pyrazolo[3,4-c]pyridin-5-yl)pyridin-3-yl)butyramide]
- IC50 [1]: > 10000 nM
- EC50 (LL29 cells): ≥ 9990 nM

Second part, led by results:

- IC50 [1]: 11.4 nM
SMILES: CN(C)c1cncc(-c2cc3c(-c4nc5c(-c6cccc(F)c6)nccc5[nH]4)n[nH]c3cn2)c1 [Compound 7, 5-(3-(4-(3-Fluorophenyl)-1H-imidazo[4,5-c]pyridin-2-yl)-1H-pyrazolo[3,4-c]pyridin-5-yl)-N,N-dimethylpyridin-3-amine]
- EC50 (LL29 cells): ≤ 9 nM

- IC50 [1]: 342 nM
SMILES: CN(C)CCNc1cc(F)cc(-c2nccc3[nH]c(-c4n[nH]c5cnc(-c6cncc(CNCC7CCCC7)c6)cc45)nc23)c1 [Compound 466, N^1-(3-(2-(5-(5-(((Cyclopentylmethyl)amino)methyl)pyridin-3-yl)-1H-pyrazolo[3,4-c]pyridin-3-yl)-1H-imidazo[4,5-c]pyridin-4-yl)-5-fluorophenyl)-N2,N2-dimethylethane-1,2-diamine]
- EC50 (LL29 cells): 74 nM

- IC50 [1]: 1080 nM
SMILES: CC(C)C(=O)Nc1cncc(-c2cc3c(-c4nc5c(N6CCN(C)CC6)nccc5[nH]4)n[nH]c3cn2)c1 [Compound 217]
- EC50 (LL29 cells): ≥ 9990 nM

- IC50 [1]: 157 nM
SMILES: CN(C)Cc1cncc(-c2cc3c(-c4nc5c(-c6cccc(F)c6)nccc5[nH]4)n[nH]c3cn2)c1 [Compound 13, 1-(5-(3-(4-(3-Fluorophenyl)-1H-imidazo[4,5-c]pyridin-2-yl)-1H-pyrazolo[3,4-c]pyridin-5-yl)pyridin-3-yl)-N,N-dimethylmethanamine]
- EC50 (LL29 cells): 1660 nM

- IC50 [1]: 264 nM
SMILES: O=C(Nc1cncc(-c2cc3c(-c4nc5c(-c6ccccc6F)nccc5[nH]4)n[nH]c3cn2)c1)C1CCCC1 [Compound 73, N-(5-(3-(4-(2-Fluorophenyl)-1H-imidazo[4,5-c]pyridin-2-yl)-1H-pyrazolo[3,4-c]pyridin-5-yl)pyridin-3-yl)cyclopentanecarboxamide]
- EC50 (LL29 cells): 534 nM

- IC50 [1]: 24.6 nM
SMILES: Cc1ccc(-c2nccc3[nH]c(-c4n[nH]c5cnc(-c6cncc(NC(=O)C(C)(C)C)c6)cc45)nc23)s1 [Compound 372, N-(5-(3-(4-(5-Methylthiophen-2-yl)-1H-imidazo[4,5-c]pyridin-2-yl)-1H-pyrazolo[3,4-c]pyridin-5-yl)pyridin-3-yl)pivalamide]
- EC50 (LL29 cells): 1080 nM

- IC50 [1]: 66.5 nM
SMILES: c1cncc(-c2cc3c(-c4nc5cnccc5[nH]4)n[nH]c3cn2)c1 [Compound 238, 3-(1H-Imidazo[4,5-c]pyridin-2-yl)-5-(pyridin-3-yl)-1H-pyrazolo[3,4-c]pyridine]
- EC50 (LL29 cells): ≥ 9990 nM

- IC50 [1]: 396 nM
SMILES: c1cc2[nH]c(-c3n[nH]c4cnc(-c5cncc(CNCC6CCCC6)c5)cc34)nc2c(-c2ccoc2)n1 [Compound 310, 1-Cyclopentyl-N-((5-(3-(4-(furan-3-yl)-1H-imidazo[4,5-c]pyridin-2-yl)-1H-pyrazolo[3,4-c]pyridin-5-yl)pyridin-3-yl)methyl)methanamine]
- EC50 (LL29 cells): > 10000 nM
